Where no end group is shown, it is not given here.
How the values were obtained:
[1] = tested on: HSV-1; experiment: microbe, parasite or virus in culture; assay type: cell-based, Herpes simplex virus type 1 (HSV-1 17 + strain); conditions: U251 cells
Protocol: (§1) Human glioma cells (U251) were maintained in Dulbecco’s Modified Eagle Medium (DMEM; Gibco, Waltham, MA, USA) supplemented with 10% heat-inactivated fetal bovine serum (FBS; ExCell), 100 U/mL penicillin, and 100 µg/mL streptomycin. Serum inactivation was performed at 56 °C for 30 min prior to medium supplementation. Cell cultures were incubated at 37 °C under 5% CO2 atmosphere. The HSV-1 17 + strain utilized in this study was maintained under laboratory preservation conditions.
U251 cells were seeded into 12-well plates at a density of 2 × 10^5 cells per well and incubated for 12 h. […] Following treatment, the total DNA was extracted by using DNA isolation mini kit (Vazyme, Nanjing, China) under the manufacturer’s instructions.
Total RNA was extracted using TRIzol reagent (Invitrogen, Carlsbad, CA, USA). One microgram of RNA was reverse-transcribed into cDNA by using a reverse transcription kit (Vazyme, China). Diluted gDNA and cDNAs were subjected to qPCR analysis using ChamQ Universal SYBR qPCR Master Mix (Vazyme, China) with the following parameters: 95 °C for 30 s, followed by 40 cycles of 95 °C for 5 s and 60 °C for 30 s, followed by melting curve analysis. Primers for qPCR were synthesized by Sangon Biotech (Shanghai, China) (Appendix A Table A2). The qPCR data were analyzed using the 2^−ΔΔCt method.

[2] = tested on: HSV-1; experiment: HSV-1 footpad inoculation mouse model, viral load (UL30 gene copies) and lung H&E histology; assay type: in vivo; conditions: C57BL/6J mice, 10 mg/kg i.p. once daily for 5 days
Protocol: Female C57BL/6J mice, aged 6–8 weeks, were purchased from Beijing Vital River Laboratory Animal Technology Co., Ltd. (Beijing, China). […] Except for the vehicle control group, mice in the other groups were subplantarly infected with HSV-1 at a dose of 1.0 × 10^6 PFU per mouse. […] The vehicle control and virus control groups received an equivalent volume of phosphate-buffered saline (PBS). Mice were euthanized 24 h after the last administration, and tissue samples were collected. Body weight was measured daily at a fixed time during the treatment period to generate weight change curves.
Tissues were homogenized using a tissue grinder and total DNA was extracted from homogenate supernatants using a DNA isolation mini kit (Vazyme, China) under the manufacturer’s instructions. To establish a standard curve for real-time quantitative PCR (qPCR), the UL30 gene was used as the target sequence, and a recombinant plasmid containing this gene was constructed. In brief, the UL30 gene was cloned into the pMD19-T vector and transformed into DH5α. After verification by colony PCR and sequencing, high-purity plasmid DNA was extracted, and its concentration was measured using Nanodrop and converted into copy numbers (copies/μL). Then a 10-fold serial dilution (10^1–10^8 copies/μL) was prepared to generate the standard curve. Using the extracted DNA as a template, UL30 gene copy numbers were quantified in mouse tissues through qPCR with UL30 specific primers.
Tissues were fixed in 4% paraformaldehyde for 72 h and subsequently processed by Servicebio Biotechnology Co., Ltd. (Wuhan, China) for paraffin embedding, pathological sectioning, and hematoxylin eosin (H&E) staining.

[3] = tested on: U251 cells; experiment: Cytotoxicity assay (CCK-8) on U251 cells; assay type: cell-based, Human; conditions: 24 h
Protocol: as §1
Cell viability was evaluated by using cell counting kit-8 reagent (CCK-8, Biosharp, Shanghai, China) according to the manufacturer’s protocol. Briefly, U251 cells were seeded in 96-well culture plates and cultured for 12 h at 37 °C. The cells were then treated with or without peptides for 24 h. After that, 10 μL of the CCK-8 reaction mixture were added to each well and incubated at 37 °C for 0.5–4 h. The absorbance of each well was measured at 450 nm with a SpectraMax M2e Multi-Mode Microplate Reader (Molecular Devices, USA). The formula for calculating cell viability is as follows:
Cell viability (%) = (average OD of treated sample-average OD of vehicle sample)/(average OD of cell sample-average OD of vehicle sample) × 100%

With `Nc1nc2c(ncn2COCCO)c(=O)[nH]1` [ACV, Acyclovir] as the molecule, how does the IC50 ([1]; Human alphaherpesvirus 1, U-251, HSV-1 MOI = 0.1, co-treatment 24 h, qPCR of UL30 DNA, mean ± SEM of three independent experiments, read-out: IC50 against HSV-1) read?
Its IC50 is 17.6 ± 5.75 µM.

And the “Lung tissue viral load (HSV-1 UL30 gene copies)” value ([2]; HSV-1 footpad 1.0 × 10^6 PFU, day 5 post-infection, n = 5, HSV-1 control 7.02 ± 0.57)?
The value was 6.01 ± 0.13 log10 copies/μL.

And the “Heart tissue viral load versus HSV-1 control group” value ([2]; HSV-1 footpad, n = 5, HSV-1 control 7.78 ± 0.41 log10 copies/μL)?
Its value is “neither the EM-1 nor the ACV treatment group showed a significant difference”.

And the “Lung histopathology (H&E staining)” value ([2]; HSV-1 footpad, compared with HSV-1 control group)?
Its value is “preserved normal alveolar architecture”.

With “GRRVKGFFRDVLRRVPYLPGPR-NH2 [EM-2, modified peptide derived from Elephas maximus cathelicidin EM]” as the molecule, how does the “Cytotoxic effect on U251 cells (cell viability)” value ([3]; U251 cells, CCK-8, 5 μM and 10 μM, compared to peptide EM, EM-3 and EM-4) read?
The value was “significantly lower toxicity”.

And the “Relative DNA levels of HSV-1 UL30” value ([1]; HSV-1 MOI = 0.1, 24 h, 10 μM peptide, versus virus control group, p < 0.001)?
Its value is “marked suppression of HSV-1 activity”.

How did the “CC50 (median cytotoxic concentration)” value [3] turn out when RRIRGLRKFFRKSKEKLKKV-NH2 [EM-1] was run?
Its value is 214.55 ± 36.25 µM.

Reference: paper PMC12291837, “Elephant Cathelicidin-Derived Peptides Inhibit Herpes Simplex Virus 1 Infection” (Antibiotics, 2025)
